Assay results: the supplement of paper PMC10307832

How the values were obtained:
Experiment in all cases: relative viability (nuclei count vs DMSO), 5 days (fraction); higher = more cells survive
[1] = tested on: NCI-H358
Outline: (§1)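 The day after seeding in 1536-well plates, lung cancer cell lines were treated by pin tool with a single drug, or with a fixed anchor-drug dose together with five library-drug doses (not always all listed) in √10 steps. After 5 days, a combined fix-and-stain solution (final 0.05% Triton X-100, 1% formaldehyde, 1 ug/ml Hoechst) was added. Nuclei counted on 4× images gave relative viability as treated counts over vehicle counts, reported as the median of duplicate plates.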

[2] = tested on: NCI-H1792
Outline: as §1

[3] = tested on: NCI-H1755
Outline: as §1

[4] = tested on: COR-L23
Outline: as §1

[5] = tested on: PC-14
Outline: as §1

[6] = tested on: LC-2-ad
Outline: as §1

[7] = tested on: NCI-H2023
Outline: as §1

[8] = tested on: NCI-H1915
Outline: as §1

[9] = tested on: NCI-H1395
Outline: as §1

[10] = tested on: NCI-H650
Outline: as §1

[11] = tested on: NCI-H2342
Outline: as §1

[12] = tested on: HCC-366
Outline: as §1

[13] = tested on: EMC-BAC-2
Outline: as §1

[14] = tested on: HCC-15
Outline: as §1

[15] = tested on: NCI-H1437
Outline: as §1

[16] = tested on: SK-MES-1
Outline: as §1

[17] = tested on: NCI-H23
Outline: as §1

[18] = tested on: NCI-H2009
Outline: as §1

[19] = tested on: COR-L 105
Outline: as §1

[20] = tested on: NCI-H2347
Outline: as §1

[21] = tested on: 201T
Outline: as §1

[22] = tested on: NCI-H1793
Outline: as §1

Cc1csc(=NC2CCCCC2)n1/N=C/c1ccc(O)c(O)c1O [MIM1] + N=C(N)NC(=N)NCCc1ccccc1 [Phenformin] (partner 250 µM)
relative viability ([1]; first compound 0.2 µM): 0.373
relative viability ([1]; first compound 0.6325 µM): 0.296
relative viability ([1]; first compound 2 µM): 0.299
relative viability ([1]; first compound 6.325 µM): 0.135
relative viability ([1]; first compound 20 µM): 0.118
relative viability ([2]; first compound 0.2 µM): 0.446
relative viability ([2]; first compound 0.6325 µM): 0.401
relative viability ([2]; first compound 2 µM): 0.322
relative viability ([2]; first compound 6.325 µM): 0.353
relative viability ([2]; first compound 20 µM): 0.43
relative viability ([3]; first compound 0.2 µM): 0.596
relative viability ([3]; first compound 0.6325 µM): 0.597
relative viability ([3]; first compound 2 µM): 0.621
relative viability ([3]; first compound 6.325 µM): 0.506
relative viability ([3]; first compound 20 µM): 0.226
relative viability ([4]; first compound 0.2 µM): 0.434
relative viability ([4]; first compound 0.6325 µM): 0.437
relative viability ([4]; first compound 2 µM): 0.37
relative viability ([4]; first compound 6.325 µM): 0.373
relative viability ([4]; first compound 20 µM): 0.187
relative viability ([5]; first compound 0.2 µM): 0.662
relative viability ([5]; first compound 0.6325 µM): 0.575
relative viability ([5]; first compound 2 µM): 0.558
relative viability ([5]; first compound 6.325 µM): 0.328
relative viability ([5]; first compound 20 µM): 0.237
relative viability ([6]; first compound 0.2 µM): 0.679
relative viability ([6]; first compound 0.6325 µM): 0.502
relative viability ([6]; first compound 2 µM): 0.537
relative viability ([6]; first compound 6.325 µM): 0.389
relative viability ([6]; first compound 20 µM): 0.217
relative viability ([7]; first compound 0.2 µM): 0.417
relative viability ([7]; first compound 0.6325 µM): 0.416
relative viability ([7]; first compound 2 µM): 0.294
relative viability ([7]; first compound 6.325 µM): 0.127
relative viability ([7]; first compound 20 µM): 0.0931
relative viability ([8]; first compound 0.2 µM): 0.421
relative viability ([8]; first compound 0.6325 µM): 0.306
relative viability ([8]; first compound 2 µM): 0.344
relative viability ([8]; first compound 6.325 µM): 0.295
relative viability ([8]; first compound 20 µM): 0.22
relative viability ([9]; first compound 0.2 µM): 0.45
relative viability ([9]; first compound 0.6325 µM): 0.444
relative viability ([9]; first compound 2 µM): 0.459
relative viability ([9]; first compound 6.325 µM): 0.399
relative viability ([9]; first compound 20 µM): 0.346
relative viability ([10]; first compound 0.2 µM): 0.477
relative viability ([10]; first compound 0.6325 µM): 0.389
relative viability ([10]; first compound 2 µM): 0.474
relative viability ([10]; first compound 6.325 µM): 0.412
relative viability ([10]; first compound 20 µM): 0.241
relative viability ([11]; first compound 0.2 µM): 0.656
relative viability ([11]; first compound 0.6325 µM): 0.543
relative viability ([11]; first compound 2 µM): 0.584
relative viability ([11]; first compound 6.325 µM): 0.53
relative viability ([11]; first compound 20 µM): 0.785
relative viability ([12]; first compound 0.2 µM): 0.598
relative viability ([12]; first compound 2 µM): 0.574
relative viability ([12]; first compound 6.325 µM): 0.357
relative viability ([12]; first compound 20 µM): 0.0831
relative viability ([13]; first compound 0.2 µM): 0.547
relative viability ([13]; first compound 0.6325 µM): 0.455
relative viability ([13]; first compound 2 µM): 0.515
relative viability ([13]; first compound 6.325 µM): 0.48
relative viability ([13]; first compound 20 µM): 0.208
relative viability ([14]; first compound 0.2 µM): 0.501
relative viability ([14]; first compound 2 µM): 0.51
relative viability ([14]; first compound 6.325 µM): 0.162
relative viability ([14]; first compound 20 µM): 0.114
relative viability ([15]; first compound 0.2 µM): 0.256
relative viability ([15]; first compound 0.6325 µM): 0.246
relative viability ([15]; first compound 2 µM): 0.244
relative viability ([15]; first compound 6.325 µM): 0.205
relative viability ([15]; first compound 20 µM): 0.217
relative viability ([16]; first compound 0.2 µM): 0.643
relative viability ([16]; first compound 0.6325 µM): 0.665
relative viability ([16]; first compound 2 µM): 0.617
relative viability ([16]; first compound 6.325 µM): 0.484
relative viability ([16]; first compound 20 µM): 0.41
relative viability ([17]; first compound 0.2 µM): 0.809
relative viability ([17]; first compound 2 µM): 0.711
relative viability ([17]; first compound 6.325 µM): 0.598
relative viability ([17]; first compound 20 µM): 0.2
relative viability ([18]; first compound 0.2 µM): 0.493
relative viability ([18]; first compound 0.6325 µM): 0.479
relative viability ([18]; first compound 2 µM): 0.45
relative viability ([18]; first compound 6.325 µM): 0.309
relative viability ([18]; first compound 20 µM): 0.169
relative viability ([19]; first compound 0.2 µM): 0.513
relative viability ([19]; first compound 0.6325 µM): 0.461
relative viability ([19]; first compound 2 µM): 0.404
relative viability ([19]; first compound 6.325 µM): 0.316
relative viability ([19]; first compound 20 µM): 0.307
relative viability ([20]; first compound 0.2 µM): 0.435
relative viability ([20]; first compound 0.6325 µM): 0.32
relative viability ([20]; first compound 2 µM): 0.387
relative viability ([20]; first compound 6.325 µM): 0.39
relative viability ([20]; first compound 20 µM): 0.288
relative viability ([21]; first compound 0.2 µM): 0.456
relative viability ([21]; first compound 0.6325 µM): 0.414
relative viability ([21]; first compound 2 µM): 0.451
relative viability ([21]; first compound 6.325 µM): 0.345
relative viability ([21]; first compound 20 µM): 0.321
relative viability ([22]; first compound 0.2 µM): 0.389
relative viability ([22]; first compound 2 µM): 0.351
relative viability ([22]; first compound 6.325 µM): 0.373
relative viability ([22]; first compound 20 µM): 0.302
